Assay [1] deals with T1, arginine amidinohydrolase.
T1 construct: native enzyme in crude homogenate of L3 larvae, not purified
Put plainly: coupled urease / glutamate dehydrogenase assay, NADH oxidation at […] nm. In kind it is biochemical, Teladorsagia circumcincta. The note with it: L3 homogenate, 100 mM phosphate buffer, 30 °C, no metal added; read-out: apparent K m.

Assay [2] deals with T2, creatine amidinohydrolase.
T2 construct: native activity in crude homogenate of L3 larvae, not purified; no nematode gene homologue found by the authors
Described as above. As to conditions: L3 homogenate, 100 mM phosphate buffer, 30 °C, no metal added; read-out: apparent K m. In kind it is biochemical, Teladorsagia circumcincta.

SMILES strings stand for the structures.

`N=C(N)NCCC[C@H](N)C(=O)O` [arginine]: the Km in assay [1] was determined as 700 ± 200 µM. Take `CN(CC(=O)O)C(=N)N` [creatine]: in assay [2], the Km amounted to 1100 ± 100 µM.
